Measurements from patent US20100260694A1, “Methionine Sulfoxide Peptide, Compositions And Methods Of Use” (priority 2009, published 2010).

What was measured:
Msr [1] = assay: Msr expression in NHEK by RT-PCR and gel electrophoresis; format: cell-based, human; settings: for level of Msr compared to a housekeeping gene: keratinocytes, RT-PCR
Method: The first material tried was oxidized methionine (the sulfoxide form). […] However, in an experiment performed in February of 2004, an oxidized polypeptide gave very good results. Investigations continued along those lines.
(§1) NHEK cells were incubated overnight in culture medium (control) and in culture medium containing oxidized peptide and in culture medium containing unoxidized peptide (control). Concentrations (mg/mL) of the oxidized peptide included 0.01, 0.1 and 0.25. The unoxidized peptide (i.e. Met-enkephalin) was tested only at 0.25 mg/mL. After incubation, mRNA was extracted from the cells and cDNA was prepared by reverse transcription polymerase chain reaction (RT-PCR). Samples were probed for Msr via gel electrophoresis using β-microglobulin as a control.

Msr [2] = assay: Msr in NHEK, confirmation by Western blotting; format: cell-based, human; settings: overnight incubation
Method: as §1

elastase = molecular target: T1, elastase (Sus scrofa, UniProt P00772); assay: Elastase activity assay (Molecular Probes) adapted for inhibition with α1-antitrypsin; format: biochemical
T1 construct: purchased Molecular Probes
Method: (§2) Methods: An elastase assay from Molecular Probes was utilized and adapted for inhibition with α1-antitrypsin. Fluorescence was measured by excitation at 485 nm and emission at 525 nm in a CytoFluor plate reader.
This was achieved by incubating 0.1 mg/ml elastin and 0.05 units/ml elastase with α1-antitrypsin in a dose-dependent manner (2.5-50 ug/sample). The results are shown in FIG. 8, where con=control; E=elastase; I=inhibitor (included with assay); AT=α1-antitrypsin.
This was done by oxidizing 10 μg of α1-antitrypsin with hydrogen peroxide.
(§3) This was achieved by incubating the A1AT that had been oxidized in 30 mM H2O2 with 0.7 mg/ml msrA and 10 mM DTT for 2 hours. […] We start with 100% elastase. As before, α1-antitrypsin (AT) removes about 90% of the elastase activity (bar labeled Elastase+AT).

[3] = UV spectrum of the peptide; format: physicochemical; settings: at 290 nm
[4] = tested on: Epidermal Full Thickness 200 (EFT 200) living skin models; assay: Sunburn Cell production in UVB-irradiated EFT 200 living skin models; format: cell-based; settings: 1 mg/ml for 48 hours, then 100 mJ/cm^2 UVB
Method: Methods: Epidermal Full Thickness 200 (EFT 200) living skin models were obtained from MatTek and incubated for 48 hours in media with or without 1 mg/ml of the MetO-enkephalin. The oxidized peptide can be stored at room temperature. Because the peptide is already oxidized, it has relative low reactivity in storage. Two ml of media were added beneath the living skin models, which were situated on a transwell membrane to allow the maintenance of an air/aqueous interface. After 48 hours, the living skin models were exposed to 100 mJ/cm^2 UVB, re-fed, and incubated overnight. The next day, the samples were fixed in 10% formalin and sent to Paragon Bioservices for histological sectioning and H&E staining. Five contiguous microscopic fields for each section were evaluated for the presence of SBC by counting the number of SBC and uninvolved cells and expressing SBC as a percentage of the total. Sunburn Cells are characterized by eosinophilic staining of the cytoplasm and pyknotic nuclei (condensed chromatin).

keratinocytes = assay: Cytotoxicity in keratinocytes; format: cell-based; settings: various concentrations, epidermal cells / keratinocytes
oxidized α1-antitrypsin = oxidized α1-antitrypsin (Homo sapiens, UniProt P01009); assay: Reversal of α1-antitrypsin oxidation by msrA, read out in elastase activity assay; format: biochemical; settings: oxidized A1AT incubated with 0.7 mg/mL MsrA and 10 mM DTT for 2 hours
Method: as §2, §3

T1 sequence (P00772 27-266): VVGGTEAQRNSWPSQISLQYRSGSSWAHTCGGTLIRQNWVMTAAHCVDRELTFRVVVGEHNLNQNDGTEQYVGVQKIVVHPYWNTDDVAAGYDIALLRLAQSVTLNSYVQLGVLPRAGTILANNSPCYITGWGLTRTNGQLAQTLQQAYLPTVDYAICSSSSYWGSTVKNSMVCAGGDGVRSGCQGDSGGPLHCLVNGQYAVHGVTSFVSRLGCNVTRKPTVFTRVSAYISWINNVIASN
Sequence of oxidized α1-antitrypsin (P01009 25-418): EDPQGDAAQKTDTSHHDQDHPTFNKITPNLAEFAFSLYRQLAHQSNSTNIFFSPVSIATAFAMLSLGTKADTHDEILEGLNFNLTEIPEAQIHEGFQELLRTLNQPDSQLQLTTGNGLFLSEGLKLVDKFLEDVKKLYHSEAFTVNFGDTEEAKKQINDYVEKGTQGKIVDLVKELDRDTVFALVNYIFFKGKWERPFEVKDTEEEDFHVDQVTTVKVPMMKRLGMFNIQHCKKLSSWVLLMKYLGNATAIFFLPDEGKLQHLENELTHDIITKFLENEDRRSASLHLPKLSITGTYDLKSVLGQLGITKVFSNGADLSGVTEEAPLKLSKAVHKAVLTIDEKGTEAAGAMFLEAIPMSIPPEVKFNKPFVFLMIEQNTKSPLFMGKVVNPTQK

Molecule: CSCC[C@H](NC(=O)[C@@H](Cc1ccccc1)NC(=O)CNC(=O)CNC(=O)[C@H](N)Cc1ccc(O)cc1)C(=O)O [Met-enkephalin, Met- enkephalin, reference compound]
- increase in Msr expression (Msr [1]; NHEK, overnight incubation, 0.25 mg/mL): no significant increase
- Msr mRNA in treated cells by Western blotting (Msr [2]): no significant increases of Msr mRNA

Molecule: C[S+]([O-])CC[C@H](N)C(=O)O (some centres unmarked) [oxidized methionine, methionine sulfoxide]
- level of Msr compared to a housekeeping gene (Msr [1]): not significantly raised

Molecule: ATox: α1-antitrypsin oxidized in 30 mM H2O2
- elastase activity with oxidized α1-antitrypsin (elastase; bar Elastase+ATox, FIG. 10, oxidized in 30 mM H2O2): all of the elastase activity returns

Molecule: Oxidized bovine serum albumin: Oxidized bovine serum albumin, a comparatively large protein
- level of Msr compared to a housekeeping gene (Msr [1]): without success

Molecule: Tyr - Gly - Gly - Phe - MetO [MetO-enkephalin]
- average increase in Msr expression (Msr [1]; NHEK, overnight incubation, oxidized peptide concentration 0.01%): 18%
- average increase in Msr expression (Msr [1]; NHEK, overnight incubation, oxidized peptide concentration 0.1%): 28%
- average increase in Msr expression (Msr [1]; NHEK, overnight incubation, oxidized peptide concentration 0.25%): 25.4%
- Msr mRNA in treated cells by Western blotting (Msr [2]): increases of Msr mRNA
- extinction coefficient [3]: 145.5
- k-value of absorbance [3]: 0.24
- average percent reduction in SBC from both trials [4]: 31.1%
- cytotoxicity (keratinocytes): low cytotoxicity

Molecule: α1-antitrypsin: serin protease inhibitor made in the liver, inhibits a wide variety of proteases
- elastase inhibition after oxidation with H2O2 (elastase; 10 μg α1-antitrypsin oxidized with 30 mM H2O2, 3 hours, ambient temperature): almost all elastase inhibition provided by α1-antitrypsin, is lost
- elastase activity (fluorescence), dose dependence (elastase; 0.1 mg/ml elastin, 0.05 units/ml elastase, α1-antitrypsin 2.5-50 ug/sample): Fluorescence decreases with increasing concentration of α1-antitrypsin
- elastase activity removed (elastase; bar Elastase+AT, FIG. 10): about 90%

B1: MsrA: form of Msr involved in the reduction of the S-stereoisomer (protein, UniProt Q9UJ68 24-235, looked up)
Mitochondrial peptide …: GNSASNIVSPQEALPGRKEQTPVAAKHHVNGNRTVEPFPEGTQMAVFGMGCFWGAERKFWVLKGVYSTQVGFAGGYTSNPTYKEVCSEKTGHAEVVRVVYQPEHMSFEELLKVFWENHDPTQGMRQGNDHGTQYRSAIYPTSAKQMEAALSSKENYQKVLSEHGFGPITTDIREGQTFYYAEDYHQQYLSKNPNGYCGLGGTGVSCPVGIKK
- re-inhibition of elastase activity (oxidized α1-antitrypsin): over 59%
